Test results from patent US10125121B2, “FYN kinase inhibitors” (ROTTAPHARM BIOTECH S.R.L., priority 2015, dated 2018).

Tests used:
[1] = molecular target: active FYN (human recombinant, 62.7 kDa) (Homo sapiens, UniProt P06241); experiment: In vitro kinase assay (Z′-LYTE FRET); type: biochemical; conditions: read-out: IC50(nM) FYN INHIBITION
Method: Assays to determine the kinase inhibitory activity of compounds were performed using an automatic liquid handling device (Microlab STAR Hamilton) and Z′-LYTE™ Kinase Assay Platform, a Fluorescence Resonance Energy Transfer (FRET)-based assay platform compatible with high-throughput screening (HTS) applications. The assay employs a fluorescence-based, coupled-enzyme format and utilizes the differential sensitivity of phosphorylated and non-phosphorylated peptides to proteolytic cleavage.
All reagents were diluted in reaction buffer and the kinase reaction was carried out in a total volume of 10 μl, for 60 minutes at 25° C. The 0% Phosphorylation (i.e. no ATP) and 100% Phosphorylation (i.e. synthetically phosphorylated peptide supplied) Assay Controls, included in each plate, allowed to calculate the percent phosphorylation achieved in the specific reaction well. The 0% Inhibition and 0% Phosphorylation (i.e. 100% Inhibition) Controls define the dynamic range in the screen. At the end of incubation, a secondary reaction (the Development Reaction) started by adding 5 μl of Development Reagent, containing a site-specific protease that recognizes and cleaves non-phosphorylated peptides, and was interrupted after 60 minutes with 5 μl/sample of Stop Reagent.
The compounds were tested in a range of concentrations 10^−6-10^−9 M.
Results are expressed as percentage of inhibition and the IC50 values were calculated by non-linear curve fitting using GraphPad™ Prism software.

[2] = test system: NF-kB activation in JB6 CI 41-5a (P+) cells; experiment: Gene reporter (GR) assay, NF-kB luciferase after TNFα stimulation; type: cell-based, murine; conditions: Mus musculus; 1 h pre-treatment, 2 ng/ml TNFα for 4 h; read-out: IC50(nM) GR Inhibition
Description: To determine if the compounds of the invention were active also in a cellular model, a gene reporter assay was established in a cell line (JB6 CI 41-5a (P+)) know to activate Fyn kinase via an inflammatory stimuli (TNFα). GR assay measures the activation of the nuclear transcription factor NF-kB, situated down-stream the Fyn activation pathway. Products active in this analysis has to penetrate in the cell and inhibit the activation pathway of NF-kB.
The murine epithelial cell line JB6 CI 41-5a (P+) (ATCC® Cat. # CRL-2010) was stably transfected with the pGL4.32[luc2P/NFkB-RE/Hygro] vector (Promega). Clonal selection was achieved by limiting dilution in MEM (+Earle's BSS+1.5 g/l sodium bicarbonate+0.1 mM NEAA)+GlutaMAX™-I, +1 mM sodium pyruvate, +5% FBS+80 μg/ml Hygromycin B. The clones were tested for their response to TNFα stimulus. The obtained transfected cells (JB6(P+) NFkB-RE-luc2P T3-C10) contained a firefly luciferase gene (luc2P) under the control of minimal TATA promoter with multiple Nuclear Factor-kB response elements (NFkB-REs). These NFkB-REs are DNA binding sequences for the NF-kB transcription factor.
JB6(P+) NFkB-RE-luc2P T3-C10 cells were used for the analysis of NF-kB activity modulation, after TNFα stimulation, by Fyn-inhibitors (Hwang et al.; Biochem. Pharmacol. 2009, 77 (7):1213-22).
6000 cells/well were plated in a 96× well plate. After 24 h new medium without antibiotics was given. After further 24 h the cells were pre-treated with the different compounds for 1 h and then stimulated with 2 ng/ml TNFα for 4 h. In each experiments two positive standards were always used, and each tested condition was analyzed in quadruplicate.
The luciferase analysis was performed with ONE-Glo™+ToxLuciferase Reporter and Cell Viability Assay kit (Promega). This assay combined luciferase assay chemistry with a cell viability marker to better understand reporter gene expression in the context of cell health. The assay uses a two-step process. The first part of the assay was a non-lytic fluorescence assay (CellTiter-Fluor™ Cell Viability Assay) that measured the relative number of live cells in a culture population, as it measures a conserved and constitutive protease activity within live cells. The live-cell protease activity was restricted to intact viable cells and was measured using a fluorogenic, cell-permeant peptide substrate (glycyl-phenylalanyl-aminofluorocoumarin; GF-AFC). The generated fluorescent signal, proportional to the number of living cells, was measured with EnVision microplate reader (PerkinElmer) using an excitation wavelength of 400 nm and emission wavelength of 500 nm.
The second part of the assay uses the ONE-Glo™ Luciferase Assay System to quantify firefly luciferase reporter gene expression. The ONE-Glo™ Assay contained a fluoro-luciferin substrate, more tolerant to sample components than standard luciferase assay reagents. Luminescence was measured with EnVision microplate reader (PerkinElmer).
Compounds of Formula (I) were tested for their capacity to penetrate into the cell and inhibit the activation pathway of NF-kB.

Chain of active FYN (human recombinant, 62.7 kDa) (P06241 whole entry): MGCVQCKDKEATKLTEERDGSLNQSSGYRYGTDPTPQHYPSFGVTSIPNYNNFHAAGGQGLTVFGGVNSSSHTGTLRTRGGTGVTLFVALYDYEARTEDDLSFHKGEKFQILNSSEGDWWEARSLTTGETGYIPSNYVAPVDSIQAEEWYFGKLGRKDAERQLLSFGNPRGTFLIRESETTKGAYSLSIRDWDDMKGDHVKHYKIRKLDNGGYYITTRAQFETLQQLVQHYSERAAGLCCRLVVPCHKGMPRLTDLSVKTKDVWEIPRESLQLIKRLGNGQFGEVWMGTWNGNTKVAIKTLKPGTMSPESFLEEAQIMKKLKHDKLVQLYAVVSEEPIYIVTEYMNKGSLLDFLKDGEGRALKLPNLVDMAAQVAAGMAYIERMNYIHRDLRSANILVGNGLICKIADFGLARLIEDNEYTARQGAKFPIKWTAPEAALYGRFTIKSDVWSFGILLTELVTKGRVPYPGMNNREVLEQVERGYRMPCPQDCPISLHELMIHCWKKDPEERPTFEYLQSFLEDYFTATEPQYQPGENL

IC50 [1] | IC50 [2] | SMILES
23 nM | 493 nM | O=C(Nc1ccc(CN2CCN(c3nccc(Nc4cc(C5CC5)[nH]n4)n3)CC2)cc1)c1c(F)cccc1C(F)(F)F [Compound 13, N-(4-((4-(4-((5-cyclopropyl-1H-pyrazol-3-yl)amino)pyrimidin-2-yl)piperazin-1-yl)methyl)phenyl)-2-fluoro-6-(trifluoromethyl)benzamide]
27 nM | 1340 nM | O=C(Nc1ccc(CN2CCN(c3nccc(Nc4cc(C5CC5)[nH]n4)n3)CC2)cc1)c1cccnc1C(F)(F)F [Compound 27, N-(4-((4-(4-((5-cyclopropyl-1H-pyrazol-3-yl)amino)pyrimidin-2-yl)piperazin-1-yl)methyl)phenyl)-2-(trifluoromethyl)-nicotinamide]
16 nM | 603 nM | O=C(Nc1ccc(CN2CCN(c3nccc(Nc4cc(C5CC5)[nH]n4)n3)CC2)cc1)c1ccc(F)cc1C(F)(F)F [Compound 14, N-(4-((4-(4-((5-cyclopropyl-1H-pyrazol-3-yl)amino)pyrimidin-2-yl)piperazin-1-yl)methyl)phenyl)-4-fluoro-2-(trifluoromethyl)benzamide]
4 nM | > 2000 nM | O=C(Nc1cnc(CN2CCN(c3nccc(Nc4cc(C5CC5)[nH]n4)n3)CC2)cn1)c1ccccc1C(F)(F)F [Compound 41, N-(5-((4-(4-((5-cyclopropyl-1H-pyrazol-3-yl)amino)pyrimidin-2-yl)piperazin-1-yl)methyl)pyrazin-2-yl)-2-(trifluoromethyl)benzamide]
39 nM | 766 nM | O=C(Nc1ccc(CN2CCN(c3nccc(Nc4cc(C5CC5)[nH]n4)n3)CC2)cc1)c1ccccc1OC(F)(F)F [Compound 8, N-(4-((4-(4-((5-cyclopropyl-1H-pyrazol-3-yl)amino)pyrimidin-2-yl)piperazin-1-yl)methyl)phenyl)-2-(trifluoromethoxy)benzamide]
94 nM | 1370 nM | CCc1cc(CN2CCN(c3nc(C)cc(Nc4cc(C5CC5)[nH]n4)n3)CC2)ccc1NC(=O)c1ccccc1F [Compound 18, N-(4-((4-(4-((5-cyclopropyl-1H-pyrazol-3-yl)amino)-6-methylpyrimidin-2-yl)piperazin-1-yl)methyl)-2-ethylphenyl)-2-fluorobenzamide]
29 nM | 430 nM | O=C(Nc1ccc(CN2CCN(c3nccc(Nc4cc(C5CC5)[nH]n4)n3)CC2)cc1)c1cccc(F)c1C(F)(F)F [Compound 12, N-(4-((4-(4-((5-cyclopropyl-1H-pyrazol-3-yl)amino)pyrimidin-2-yl)piperazin-1-yl)methyl)phenyl)-3-fluoro-2-(trifluoromethyl)benzamide]
27 nM | 1050 nM | O=C(Nc1ccc(CN2CCN(c3nccc(Nc4cc(C5CC5)[nH]n4)n3)CC2)nc1)c1ccccc1C(F)(F)F [Compound 43, N-(6-((4-(4-((5-cyclopropyl-1H-pyrazol-3-yl)amino)pyrimidin-2-yl)piperazin-1-yl)methyl)pyridin-3-yl)-2-(trifluoromethyl)benzamide]
17 nM | 788 nM | Cc1ccccc1C(=O)Nc1ccc(CN2CCN(c3nccc(Nc4cc(C5CC5)[nH]n4)n3)CC2)cc1 [Compound 4, N-(4-((4-(4-((5-cyclopropyl-1H-pyrazol-3-yl)amino)pyrimidin-2-yl)piperazin-1-yl)methyl)phenyl)-2-methylbenzamide]
103 nM | 1930 nM | Cc1nocc1C(=O)Nc1ccc(CN2CCN(c3nccc(Nc4cc(C5CC5)[nH]n4)n3)CC2)cc1 [Compound 23, N-(4-((4-(4-((5-cyclopropyl-1H-pyrazol-3-yl)amino)pyrimidin-2-yl)piperazin-1-yl)methyl)phenyl)-3-methylisoxazole-4-carboxamide]
30 nM | > 2000 nM | Cc1cc(CN2CCN(c3nccc(Nc4cc(C5CC5)[nH]n4)n3)CC2)ccc1NC(=O)c1ccccc1F [Compound 17, N-(4-((4-(4-((5-cyclopropyl-1H-pyrazol-3-yl)amino)pyrimidin-2-yl)piperazin-1-yl)methyl)-2-methylphenyl)-2-fluorobenzamide]
8 nM | 973 nM | O=C(Nc1ccc(CN2CCN(c3nccc(Nc4cc(C5CC5)[nH]n4)n3)CC2)cc1)c1cnccc1C(F)(F)F [Compound 29, N-(4-((4-(4-((5-cyclopropyl-1H-pyrazol-3-yl)amino)pyrimidin-2-yl)piperazin-1-yl)methyl)phenyl)-4-(trifluoromethyl)-nicotinamide]
42 nM | 854 nM | Cc1nc(C(=O)Nc2ccc(CN3CCN(c4nccc(Nc5cc(C6CC6)[nH]n5)n4)CC3)cc2)c(C(F)(F)F)o1 [Compound 21, N-(4-((4-(4-((5-cyclopropyl-1H-pyrazol-3-yl)amino)pyrimidin-2-yl)piperazin-1-yl)methyl)phenyl)-2-methyl-5-(trifluoromethyl)oxazole-4-carboxamide]
17 nM | 1000 nM | O=C(Nc1ccc(CN2CCN(c3nccc(Nc4cc(C5CC5)[nH]n4)n3)CC2)cc1)c1ccncc1C(F)(F)F [Compound 32, N-(4-((4-(4-((5-cyclopropyl-1H-pyrazol-3-yl)amino)pyrimidin-2-yl)piperazin-1-yl)methyl)phenyl)-3-(trifluoromethyl)-isonicotinamide]
8 nM | > 2000 nM | O=C(Nc1ccc(CN2CCN(c3nccc(Nc4cc(C5CC5)[nH]n4)n3)CC2)cc1)c1nccnc1C(F)(F)F [Compound 36, N-(4-((4-(4-((5-cyclopropyl-1H-pyrazol-3-yl)amino)pyrimidin-2-yl)piperazin-1-yl)methyl)phenyl)-3-(trifluoromethyl)-pyrazine-2-carboxamide]
1450 nM |  | Cn1ccnc1C(=O)Nc1ccc(CN2CCN(c3nccc(Nc4cc(C5CC5)[nH]n4)n3)CC2)cc1 [Compound 34, N-(4-((4-(4-((5-cyclopropyl-1H-pyrazol-3-yl)amino)pyrimidin-2-yl)piperazin-1-yl)methyl)phenyl)-1-methyl-1H-imidazole-2-carboxamide]
37 nM |  | CC1CCCN1C(=O)Nc1ccc(CN2CCN(c3nccc(Nc4cc(C5CC5)[nH]n4)n3)CC2)cc1 (stereo not shown) [Compound 48, N-(4-((4-(4-((5-cyclopropyl-1H-pyrazol-3-yl)amino)pyrimidin-2-yl)piperazin-1-yl)methyl)phenyl)-2-methylpyrrolidine-1-carboxamide]
74 nM |  | Cn1cc(C(=O)Nc2ccc(CN3CCN(c4nccc(Nc5cc(C6CC6)[nH]n5)n4)CC3)cc2)c(C(F)(F)F)n1 [Compound 33, N-(4-((4-(4-((5-cyclopropyl-1H-pyrazol-3-yl)amino)pyrimidin-2-yl)piperazin-1-yl)-methyl)phenyl)-1-methyl-3-(trifluoromethyl)-1H-pyrazole-4-carboxamide]
89 nM |  | CC(C)c1ccccc1C(=O)Nc1ccc(CN2CCN(c3nccc(Nc4cc(C5CC5)[nH]n4)n3)CC2)cc1 [Compound 6, N-(4-((4-(4-((5-cyclopropyl-1H-pyrazol-3-yl)amino)pyrimidin-2-yl)piperazin-1-yl)methyl)phenyl)-2-isopropylbenzamide]
